One assay concerns the target FoccCSP-Thr28Ala (Frankliniella occidentalis, UniProt G4Y3X1, T28A). As to the kind of experiment: Fluorescence (1-NPN) binding and competitive binding assay, FoccCSP mutant. On the procedure:
(§1) The binding affinity of FintCSP1 and FoccCSP to the fluorescent probe N-phenyl-1-naphthylamine (1-NPN) was tested using a Spectramax M2 fluorescence spectrometer (Molecular Devices, USA) as reported previously. […] The 1-NPN/FintCSP1 or 1-NPN/FoccCSP mixture was excited at 280 nm, and the emission spectra were recorded at 415 nm. The binding constants (Kd) of FintCSP1 or FoccCSP to 1-NPN were calculated by Scatchard analysis using Prism 5 software (GraphPad, La Jolla, CA, USA). Assuming a protein activity of 100% and that the volatile compound binds to the protein in a 1:1 ratio at saturation, the dissociation constants (Ki) of FintCSP1 or FoccCSP for each ligand were calculated according to the IC50 (the concentration when the ligand replaces 50% of the probe) value of the volatile compounds. The Ki values were calculated according to the following equation: Ki = [IC50]/(1 + [1-NPN]/K1-NPN), where [1-NPN] is the free concentration of 1-NPN, and K1-NPN is the Kd of the 1-NPN/FintCSP1 or 1-NPN/FoccCSP.
(§2) To verify the key amino acids of FintCSP1 and FoccCSP that bind to cis-3-hexenal, six amino acid residues of FintCSP1 were mutated (Lys26Ala, Phe27Ala, Thr28Ala, Glu67Ala, Ser84Ala, and the negative control residue Val132Ala) and nine amino acid residues of FoccCSP were mutated (Lys26Ala, Phe27Ala, Thr28Ala, Thr29Ala, Tyr31Ala, Asp64Ala, Glu67Ala, Gln87Ala, and the negative control residue Val132Ala) with the Fast Mutagenesis System Kit (Transgen Biotech, Beijing, China) using the pET-30a/FintCSP1 and pET-30a/FoccCSP plasmid DNA as template, respectively. Specific primers were designed using Primer Premier 5.0 according to the instructions of the Fast Mutagenesis System Kit (S1 Table). After validation by sequencing, each recombinant variant protein was produced and purified as described above, and their binding affinity to cis-3-hexenal was measured as described above.

The next assay has as its target FoccCSP-Asp64Ala (Frankliniella occidentalis, UniProt G4Y3X1, D64A). The assay is described as above. As to the method:
as §1, §2

The next assay deals with FintCSP1-Val132Ala (Frankliniella intonsa, UniProt A0A891LVF4, V132A). As to the kind of experiment: Fluorescence (1-NPN) binding and competitive binding assay, FintCSP1 mutant (negative control residue). On the procedure:
(§3) The binding affinity of FintCSP1 and FoccCSP to the fluorescent probe N-phenyl-1-naphthylamine (1-NPN) was tested using a Spectramax M2 fluorescence spectrometer (Molecular Devices, USA) as reported previously. Volatile compounds and 1-NPN were first dissolved to a concentration of 1 mM in HPLC-grade methanol and dissolved to their indicated final concentration (2–20 μM) to titrate 2 μM protein solutions resuspended in 50 mM Tris-HCl (pH 7.4). The 1-NPN/FintCSP1 or 1-NPN/FoccCSP mixture was excited at 280 nm, and the emission spectra were recorded at 415 nm. The binding constants (Kd) of FintCSP1 or FoccCSP to 1-NPN were calculated by Scatchard analysis using Prism 5 software (GraphPad, La Jolla, CA, USA). Assuming a protein activity of 100% and that the volatile compound binds to the protein in a 1:1 ratio at saturation, the dissociation constants (Ki) of FintCSP1 or FoccCSP for each ligand were calculated according to the IC50 (the concentration when the ligand replaces 50% of the probe) value of the volatile compounds. The Ki values were calculated according to the following equation: Ki = [IC50]/(1 + [1-NPN]/K1-NPN), where [1-NPN] is the free concentration of 1-NPN, and K1-NPN is the Kd of the 1-NPN/FintCSP1 or 1-NPN/FoccCSP.
as §2, with “Specific primers were designed using Primer Premier 5.0 according to the instructions of the Fast Mutagenesis System Kit (S1 Table).” left out

The next assay addresses FintCSP1-Ser84Ala (Frankliniella intonsa, UniProt A0A891LVF4, S84A). As to the kind of experiment: Fluorescence (1-NPN) binding and competitive binding assay, FintCSP1 mutant. On the procedure:
as §3
as §2, with “Specific primers were designed using Primer Premier 5.0 according to the instructions of the Fast Mutagenesis System Kit (S1 Table).” left out

SMILES strings stand for the structures.

Sequence of FoccCSP-Asp64Ala (G4Y3X1 entry or part of it D64A): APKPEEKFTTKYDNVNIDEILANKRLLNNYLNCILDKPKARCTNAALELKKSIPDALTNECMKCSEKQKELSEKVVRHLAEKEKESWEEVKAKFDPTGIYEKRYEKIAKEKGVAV
Sequence of FintCSP1-Ser84Ala (A0A891LVF4 entry or part of it S84A): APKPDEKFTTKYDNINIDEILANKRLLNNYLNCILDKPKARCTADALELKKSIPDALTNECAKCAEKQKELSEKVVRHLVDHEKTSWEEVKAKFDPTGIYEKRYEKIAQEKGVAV
Sequence of FoccCSP-Thr28Ala (G4Y3X1 entry or part of it T28A): as the sequence (G4Y3X1 entry or part of it D64A) above, with T9A, A45D counted along it
Sequence of FintCSP1-Val132Ala (A0A891LVF4 entry or part of it V132A): as the sequence (A0A891LVF4 entry or part of it S84A) above, with A65S, V113A counted along it

In the case of `CC/C=C\CC=O` [cis-3-hexenal], the IC50 was over 100 µM on FoccCSP-Thr28Ala, 65.9 ± 0.79 µM at FoccCSP-Asp64Ala, 39.24 ± 0.36 µM at FintCSP1-Val132Ala and 41.3 ± 3.96 µM at FintCSP1-Ser84Ala. Moreover, the “affinity for cis-3-hexenal (in words)” value on FoccCSP-Thr28Ala (FoccCSP-Thr28Ala) is “no affinity”. Besides, the Ki at FoccCSP-Asp64Ala came to 62.2 ± 0.75 µM; at FintCSP1-Val132Ala it was 32.18 ± 0.29 µM; on FintCSP1-Ser84Ala, 29.7 ± 2.84 µM. At FoccCSP-Asp64Ala (FoccCSP-Asp64Ala compared to the wild-type protein), the “binding affinity to cis-3-hexenal (in words)” value was “significantly decreased binding affinities”.

For orientation: IC50 means the concentration that gives 50% inhibition. High values mean weaker potency, low ones greater potency. What is called Ki is a measure of affinity in units of concentration, obtained from inhibition or displacement.

For the origin of these results see PMC10194981, “Chemosensory protein regulates the behavioural response of Frankliniella intonsa and Frankliniella occidentalis to tomato zonate spot virus–Infected pepper (Capsicum annuum)” (PLOS Pathogens, 2023).
